Test results reported in patent US6313153A, “Compositions and methods for treating nephritis and inhibiting TGF -β related conditions using pyridylacrylamide derivatives” (Tsumura & Co., priority 1997, dated 2001).

Legend:
total TGF-β1 = assay: production of total TGF-β1 in glomeruli isolated from nephritic mice (ELISA); format: cell-based, BALB/c male mice; conditions: Mus musculus, 10^-6 M, 48 hours, supernatant acid treated, read-out: Inhibition rate (%) of production of total TGF-β1
Experimental: BALB/c male mice were adapted in a feeding chamber for 1 week before subjecting to experiments. Nephritis was induced by subcutaneously injecting an emulsion of rabbit γ-globulin and Freund's complete adjuvant on the back in a dose amount of 1.0 mg per mouse and, after 5 days (on the zeroth day), intravenously injecting rabbit anti-mouse GBM serum in a dose amount of 0.1 ml per mouse. After 1 day from the injection of anti-serum, the glomeruli were isolated through sieves with different sizes and washed twice. Each compound to be tested (10^-6 M) was added while the solvent was added to the control groups. The glomeruli were incubated in RPMI-1640 serum-free medium for 48 hours. The amount of production of active TGF-β1 was determined by measuring the supernatant itself after the incubation for 48 hours in ELSA method. Further, the supernatant was treated with hydrochloric acid and the pH was returned with sodium hydroxide. The total amount of TGF-β1 produced in the supernatant was measured in ELISA method. The protein concentration in the medium was also measured as glomeruli protein concentration. The inhibition rate was calculated by the following equation.
Inhibition rate (%)=100×(value of control group-value of sample)/(value of control group)

anti-GBM nephritic mice = assay: anti-GBM nephritic mice: proteinuria, serum cholesterol, blood urea nitrogen and serum creatinine; format: in vivo, BALB/c mice; conditions: for Total Evaluation: 3 × (number of + in proteinuria) + (number of + in serum parameter); for Proteinuria 5th day: 5th day from intravenous injection of anti-GBM serum; for Proteinuria 5th day / Proteinuria 10th day / Serum Parameter BUN (blood urea nitrogen) / Serum Parameter S-Ch (serum cholesterol) / Serum Parameter S-Cr (serum creatinine): oral; for Proteinuria 10th day: 10th day from intravenous injection of anti-GBM serum; for Serum Parameter BUN (blood urea nitrogen) / Serum Parameter S-Ch (serum cholesterol) / Serum Parameter S-Cr (serum creatinine): 11th day;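 for Proteinuria 10th day: minus not effective plus trend double p<0.05 triple p<0.01 quadruple p<0.001 improvement vs control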;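 for Proteinuria 5th day: minus not effective plus trend double p<0.05 triple p<0.01 quadruple p<0.001 improvement vs control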;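 for Serum Parameter BUN (blood urea nitrogen): minus not effective plus trend double p<0.05 triple p<0.01 quadruple p<0.001 improvement vs control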;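 for Serum Parameter S-Ch (serum cholesterol): minus not effective plus trend double p<0.05 triple p<0.01 quadruple p<0.001 improvement vs control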
Experimental: BALB/c mice (5 weeks old, purchased from Nippon Charles Liver) were quarantined and adapted for about 1 week before subjecting to experiments. These mice were divided into several groups for the experiments so that average body weights and standard deviations were almost identical in all groups. Mouse anti-GBM (glomerular basement membrane) nephritis was caused by immunizing the mice with rabbit γ-globulin (1 mg) with Freund's complete adjuvant and intravenously injecting rabbit anti-mouse GBM serum on the fifth day from the immunization. Each compound tested was forcedly orally administered via an oral sonde almost simultaneously with the intravenous injection of the anti-GBM serum. On the 5th and 10th days from the intravenous injection, urine was taken by a plastic metabolic cage and proteinuria was measured (Ohtsuka Tonein TP2). On the 11th day, blood was taken by cutting the carotid and serum cholesterol (S--Ch), blood urea nitrogen (BUN) and serum creatinine (S--Cr) were measured by Toshiba TBA-380 autoanalyzer.

| Compound | inhibition at 1 µM (total TGF-β1) [%] | Total Evaluation (anti-GBM nephritic mice) | Proteinuria 5th day (anti-GBM nephritic mice) | Proteinuria 10th day (anti-GBM nephritic mice) | Serum Parameter BUN (blood urea nitrogen) (anti-GBM nephritic mice) | Serum Parameter S-Ch (serum cholesterol) (anti-GBM nephritic mice) | Serum Parameter S-Cr (serum creatinine) (anti-GBM nephritic mice) |
| --- | --- | --- | --- | --- | --- | --- | --- |
| COc1ccc(CCN(C)C(=O)/C=C/c2ccccn2)cc1OC [Compound 153] | 31 |  |  |  |  |  |  |
| COc1ccc(CCNC(=O)/C=C/c2cccnc2)cc1OC [Compound 55] | 75.7 | 17 | + | +++ | ++ | +++ | - |
| CCN(CCc1ccc(OC)c(OC)c1)C(=O)/C=C/c1cccnc1 [Compound 12] | 37.8 | 8 | - | + | + | + | +++ |
| COc1ccc(CCN(C)C(=O)/C(C#N)=C/c2cccnc2)cc1OC [Compound 2] | 56.7 | 13 | + | +++ | - | - | + |
| O=C(/C=C/c1cccnc1)NCCc1cccc(OCC(=O)NO)c1 [Compound 120] | 56.9 |  |  |  |  |  |  |
| COc1ccc(CCN(C)C(=O)/C=C/c2cccnc2)cc1O [Compound 51] | 56.8 |  |  |  |  |  |  |
| O=C(O)COc1cccc(CCNC(=S)/C=C/c2cccnc2)c1 [Compound 151] | 19.1 |  |  |  |  |  |  |
| CNC(=O)COc1cccc(CCNC(=O)/C=C/c2cccnc2)c1 [Compound 114, (E)-N-[3-[(methyl-carbamoyl)methoxy]phenethyl]-3-(3-pyridyl)-2-propenoic acid amide] |  | 24 | +++ | +++ | ++ | +++ | + |
| N#C/C(=C\c1cccnc1)C(=O)NCCc1cccc(O)c1 [Compound 8] |  | 6 | - | ++ | - | - | - |
| O=C(O)COc1ccc(CCNC(=O)/C=C/c2cccnc2)cc1 [Compound 149] | 35.9 |  |  |  |  |  |  |
| O=C(/C=C(/c1ccccc1)c1cccnc1)NCCc1cccc(O)c1 [Compound 93] |  | 8 | - | - | +++ | ++ | +++ |
| O=C(/C=C/c1cccnc1)NCc1ccc(O)cc1 [Compound 45] |  | 10 | ++ | + | - | + | - |
| COc1ccc(C(=O)CN(C)C(=O)/C=C/c2cccnc2)cc1OC [Compound 155, (E) -N-[2-(3,4-dimethoxyphenyl)-2-oxoethyl]-N-methyl-3-(3-pyridyl)-2-propenoicacid amide] |  | 28 | ++++ | ++++ | + | +++ | - |
| CCOC(=O)COc1cccc(CCNC(=O)/C=C/c2cccnc2)c1 [Compound 100] |  | 6 | - | + | + | + | + |
| O=C(/C=C/c1cccnc1)NCCc1ccc(O)c(O)c1 [Compound 91] |  | 14 | + | +++ | - | ++ | - |
| COc1ccc(CCN(C)C(=O)/C=C/c2cccnc2)c(OC)c1 [Compound 14] |  | 7 | - | + | + | + | - |

| Compound | inhibition at 1 µM (total TGF-β1) [%] | Total Evaluation (anti-GBM nephritic mice) | Proteinuria 5th day (anti-GBM nephritic mice) | Proteinuria 10th day (anti-GBM nephritic mice) | Serum Parameter BUN (blood urea nitrogen) (anti-GBM nephritic mice) | Serum Parameter S-Ch (serum cholesterol) (anti-GBM nephritic mice) | Serum Parameter S-Cr (serum creatinine) (anti-GBM nephritic mice) |
| --- | --- | --- | --- | --- | --- | --- | --- |
| COc1cccc(CCN(C)C(=O)/C=C/c2cccnc2)c1OC [Compound 13] |  | 13 | + | +++ | + | - | + |
| COc1ccc(C(=O)CN(C)C(=S)/C=C/c2cccnc2)cc1OC [Compound 165, (E)-N-[2-(3,4-dimethoxyphenyl)-2-oxoethyl]-N-methyl-3-(3-pyridyl)-2-propenoic acid thioamide] |  | 22 | +++ | +++ | + | +++ | - |
| COc1ccc(C(CN(C)C(=O)/C=C/c2cccnc2)=NO)cc1OC [Compound 156, (E)-N-[2-(3,4-dimethoxyphenyl)-2-(hydroxyimino)ethyl]-N-methyl-3-(3-pyridyl)-2-propenoic acid amide] |  | 7 | + | + | - | + | - |
| Cl.N#C/C(=C\c1cccnc1)C(=O)NCCc1ccc(O)cc1 [Compound 6, (E)-2-cyano-N-(4-hydroxyphenethyl)-3-(3-pyridyl)-2-propenoic acid amide hydrochloride] |  | 16 | ++ | +++ | - | + | - |
| COc1cccc(CCNC(=O)/C=C/c2cccnc2)c1 [Compound 41] |  | 8 | + | - | - | +++ | ++ |
| O=C(/C=C/c1cccnc1)NCCc1cccc(O)c1 [Compound 75] |  | 19 | ++ | +++ | + | ++ | + |
| COc1ccc(O)c(CCNC(=O)/C=C/c2cccnc2)c1 [Compound 50] |  | 18 | ++ | +++ | - | +++ | - |
| O=C(/C=C/c1cccnc1)NCCc1cccc(OCC(=O)NC2CCCC2)c1 [Compound 116] |  | 10 | + | + | ++ | + | + |
| COc1ccc(CCN(C)C(=O)/C=C/c2ccncc2)cc1OC [Compound 154] | 53.4 |  |  |  |  |  |  |
| CCNC(=O)Oc1cccc(CCNC(=O)/C=C/c2cccnc2)c1 [Compound 127, (E)-N-[3-[(ethylcarbamoyl)oxy]-phenethyl]-3-(3-pyridyl)-2-propenoic acid amide] |  | 17 | +++ | ++ | - | ++ | - |
| COc1ccc(CCN(C)C(=O)/C=C/c2cccnc2)cc1OC [Compound 140] |  | 14 | + | ++ | ++ | ++ | + |
| CCOC(=O)COc1ccc(CN(C)C(=O)/C=C/c2cccnc2)cc1 [Compound 95] |  | 9 | + | + | ++ | + | - |
| COc1ccc(OC)c(CCN(C)C(=O)/C=C/c2cccnc2)c1 [Compound 15] |  | 11 | + | + | + | + | + |
| O=C(/C=C/c1cccnc1)NCCc1ccccc1O [Compound 38] |  | 19 | ++ | +++ | + | ++ | + |
| O=C(/C=C/c1cccnc1)NCCc1ccccc1O [Compound 70, (E)-N-(2-hydroxyphenethyl)-3-(3-pyridyl)-2-propenoic acid amide] |  | 22 | ++ | +++ | ++ | +++ | ++ |
